What is called IC50 is the concentration needed to halve the response being measured.

T1 sequence (Q14432 whole entry): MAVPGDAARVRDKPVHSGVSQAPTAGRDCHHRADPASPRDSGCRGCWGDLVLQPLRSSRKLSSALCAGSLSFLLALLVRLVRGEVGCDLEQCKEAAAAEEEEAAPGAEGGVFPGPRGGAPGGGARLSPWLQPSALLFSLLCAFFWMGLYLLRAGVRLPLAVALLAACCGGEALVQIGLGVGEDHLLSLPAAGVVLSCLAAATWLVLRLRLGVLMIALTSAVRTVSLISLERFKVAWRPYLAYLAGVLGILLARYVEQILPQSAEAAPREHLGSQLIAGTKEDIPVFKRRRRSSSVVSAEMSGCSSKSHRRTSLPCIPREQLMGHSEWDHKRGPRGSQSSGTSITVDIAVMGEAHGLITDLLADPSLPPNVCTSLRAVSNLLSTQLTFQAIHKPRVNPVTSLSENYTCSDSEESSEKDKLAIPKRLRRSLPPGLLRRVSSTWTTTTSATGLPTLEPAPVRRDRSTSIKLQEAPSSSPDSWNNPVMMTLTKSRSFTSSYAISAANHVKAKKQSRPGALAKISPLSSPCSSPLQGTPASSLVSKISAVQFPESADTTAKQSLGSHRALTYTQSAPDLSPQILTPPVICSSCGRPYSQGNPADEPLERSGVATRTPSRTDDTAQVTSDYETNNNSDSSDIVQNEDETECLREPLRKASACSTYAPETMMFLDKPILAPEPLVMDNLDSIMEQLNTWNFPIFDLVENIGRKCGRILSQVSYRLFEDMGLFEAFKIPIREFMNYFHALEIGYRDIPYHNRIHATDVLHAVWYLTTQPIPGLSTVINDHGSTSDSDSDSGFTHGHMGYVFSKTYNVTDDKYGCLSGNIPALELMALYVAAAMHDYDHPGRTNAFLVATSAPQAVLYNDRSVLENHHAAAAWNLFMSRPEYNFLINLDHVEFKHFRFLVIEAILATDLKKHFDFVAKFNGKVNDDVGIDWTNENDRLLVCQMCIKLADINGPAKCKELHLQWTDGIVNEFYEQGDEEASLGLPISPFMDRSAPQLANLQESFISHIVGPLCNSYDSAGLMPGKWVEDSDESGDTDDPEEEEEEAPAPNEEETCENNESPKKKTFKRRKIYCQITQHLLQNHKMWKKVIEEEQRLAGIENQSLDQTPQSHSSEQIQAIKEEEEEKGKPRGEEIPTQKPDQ

The first assay addresses T1, human platelet PDE3 (Homo sapiens, UniProt Q14432).
T1 construct: tissue AllCells, LLC PB027; host or cells: human platelets, 70,000 g supernatant of sonicated lysate
In words: In vitro inhibition of PDE3 phosphodiesterases (platelet extract, [3H]cAMP SPA). It counts as biochemical. The conditions noted are these: cAMP as substrate. How it is done:
Compounds of the invention were evaluated for inhibitory activity against human platelet PDE3 to ascertain PDE3 inhibition. The PDE3 assay was performed using platelet cell extract as described above in Biological Example 1 for the PDE4 assay. Platelets are known contain PDE's 2, 3 and 5. However […] utilize cGMP, so in an assay with cAMP as a substrate they are not detected.
Human platelet cytoplasmic extracts were prepared by modified method of Keller et al. Human platelets (AllCells, LLC; Cat. No. PB027) were sonicated in supplemented lysis buffer. Supplemented lysis buffer consisted of 20 mM Tris, 1 mM EDTA, 1 mM DTT, 0.25 M sucrose, 1 mM benzamidine, 1 μg/mL Leupeptin, 1 μM Pepstatin, and 0.1 mM PMSF, pH 7.5. The platelet lysates were centrifuged at 70,000 g for 30 minutes at 4° C. The supernatants were aliquoted and stored at −80° C.
Reactions were performed in duplicate by the addition of 10 μL PDE3 lysate to 20 μL of assay mix and 20 μL of test compounds in Isoplates (Wallac) for 30 minutes, at 37° C. […] The plate was sealed, shaken for 1 minute and then allowed to settle 30 minutes and the cpm determined using a Wallac Micobeta.
PDE3 enzyme was added in quantities such that less than 15% of substrate was consumed (linear assay conditions).
Turning to `COc1ccc(C2CNC(=O)C2)cc1OC1CCCC1` (stereo not drawn) [rolipram], the “inhibition of PDE3 (assay specificity control)” value was “without effect”.

Take `COc1cc2c(cc1OC)-c1c/c(=N\c3c(C)cc(C)cc3C)n(C)c(=O)n1CC2` [trequinsin]: the “inhibition of PDE3 (assay specificity control)” value is listed as “potent inhibitor”.

In another assay the target is PDE4 enzyme (U937 lysate or recombinant hPDE4). The experiment in a line: In vitro inhibition of PDE4 phosphodiesterases ([3H]cAMP SPA enzyme assay, Method A). It counts as biochemical, human. Conditions: Biological Example 1, Method A. As for the experimental part: PDE4 U937 cytoplasmic extracts were prepared by a modified procedure of the assay described in MacKenzie, S. J. and Houslay, M. D., “Action of rolipram on specific PDE4 cAMP phosphodiesterase isoforms and on the phosphorylation of cAMP-response-element-binding protein (CREB) and p38 mitogen-activated protein (MAP) kinase in U937 monocytic cells”, Biochem J. (2000), 347(Pt 2):571-8, by lysis of U937 cells (ATCC: Catalogue No. CRL-159) in M-PER Lysis buffer (Pierce) containing 10% protease inhibitor cocktail (Sigma). The cell lysates were then centrifuged at 30,000 rpm for 15 minutes at 4° C. The supernatants were aliquoted and stored at −80° C.
An alternative source of PDE4 enzymes was from recombinant human PDE4 obtained from baculovirus-SF9 cells expression system. cDNA containing PDE4D1 was cloned into a baculovirus vector, insect cells (SF9) were then infected and cells cultured to express the PDE4 protein. The cells were lysed and used directly in assay or partially purified using standard procedures. The process can be used for other PDE4 and PDE enzymes.
Compounds of the invention were evaluated for inhibitory activity against PDE4 enzymes by the following assay Method A or B.
PDE4 assay based on modified procedure of Phosphodiesterase [^3H]cAMP SPA Enzyme Assay (Amersham Biosciences, code TRKQ 7090). In this assay, PDE4 enzymes converts [^3H]cAMP to [^3H]5′-AMP. The assay is quenched by the addition of SPA yttrium silicate beads which preferentially bind linear nucleotides over cyclic nucleotides in the presence of zinc sulphate.
Reactions were performed in duplicate by the addition of 10 μl PDE4 enzyme (U937 lysate or recombinant hPDE4) to 20 μL of assay mix and 20 μL of test compounds in Isoplates (Wallac) for 30 minutes, at 37° C. The final assay mixture contained: 50 mM Tris (pH 7.5), 8.3 mM MgCl2, 1.7 mM EGTA and [^3H]cAMP (0.025 μCi) (Amersham). Assay was terminated by addition 25 μL SPA beads. The plate was sealed, shaken for 1 minute and then allowed to settle 30 minutes and the cpm determined using a Wallac Micobeta.
PDE4 enzyme was added in quantities such that less than 15% of substrate was consumed (linear assay conditions).
Turning to `COc1ccc([C@H]2CNC(=O)[C@@H](Cc3ccc(OCC(N)=O)cc3)C2)cc1OC1CCCC1` [2-(4-(((3R,5S)-5-(3-(cyclopentyloxy)-4-methoxyphenyl)-2-oxopiperidin-3-yl)methyl)phenoxy)acetamide], the IC50 came to 1340 nM.

For the compound `COc1ccc([C@@H]2C[C@H](Cc3cccc(C)c3)C(=O)N(C(C)=O)C2)cc1OC1CCCC1` [(3R,5S)-1-acetyl-5-(3-(cyclopentyloxy)-4-methoxyphenyl)-3-(3-methylbenzyl)piperidin-2-one], the IC50 was 1100 nM.

For the compound `COc1ccc([C@H]2CNC(=O)[C@@H](Cc3cccc(OCc4ccccc4)c3)C2)cc1OC1CCCC1` [(3R,5S)-3-(3-(benzyloxy)benzyl)-5-(3-(cyclopentyloxy)-4-methoxyphenyl)piperidin-2-one], the IC50 was 189 nM.

As to `COc1ccc([C@@H]2C[C@H](Cc3cccc(C)c3)C(=O)N(CC(C)C)C2)cc1OC1CCCC1` [(3R,5S)-5-(3-(cyclopentyloxy)-4-methoxyphenyl)-1-isobutyl-3-(3-methylbenzyl)-piperidin-2-one], the IC50 is 6780 nM.

As for `COc1ccc([C@H]2CNC(=O)[C@H](CCCCCc3ccccc3)C2)cc1OC1CCCC1` [(3R,5S)-5-(3-(cyclopentyloxy)-4-methoxyphenyl)-3-(5-phenylpentyl)piperidin-2-one], the concentration for half-maximal inhibition (IC50) was 578 nM.

Take `COc1ccc([C@H]2CNC(=O)[C@H](Cc3ccc(F)c(F)c3)C2)cc1OC1CCCC1` [(3S,5S)-5-(3-(cyclopentyloxy)-4-methoxyphenyl)-3-(3,4-difluorobenzyl)piperidin-2-one]: the IC50 is 101 nM.

Take `CCCNc1cccc(C[C@@H]2C[C@@H](c3ccc(OC)c(OC4CCCC4)c3)CNC2=O)c1` [(3S,5S)-5-(3-(cyclopentyloxy)-4-methoxyphenyl)-3-(3-(propylamino)benzyl)-piperidin-2-one]: the IC50 is 604 nM.

In the case of `COc1ccc([C@H]2CNC(=O)[C@H](Cc3ccc(Oc4ccccc4)cc3)C2)cc1OC1CCCC1` [(3S,5S)-5-(3-(cyclopentyloxy)-4-methoxyphenyl)-3-(4-phenoxybenzyl)piperidin-2-one], the IC50 came out at 457 nM.

Consider `COc1cc(CC2C[C@@H](c3ccc(OC)c(OC4CCCC4)c3)CNC2=O)ccc1OC1CCCC1` (stereo partly drawn) [(5S)-3-(4-(cyclopentyloxy)-3-methoxybenzyl)-5-(3-(cyclopentyloxy)-4-methoxyphenyl)piperidin-2-one], for which the IC50 came out at 379 nM.

In the case of `COc1cc(CC2C[C@@H](c3ccc(OC)c(-c4ccccc4)c3)CNC2=O)ccc1OC1CCCC1` (stereo partly drawn) [(5S)-3-(4-(cyclopentyloxy)-3-methoxybenzyl)-5-(6-methoxybiphenyl-3-yl)piperidin-2-one], the IC50 came out at 519 nM.

On to `CCCCCCCOc1cc([C@H]2CNC(=O)C(Cc3ccccc3)C2)ccc1OC` (stereo partly drawn) [(5S)-3-benzyl-5-(3-(heptyloxy)-4-methoxyphenyl)piperidin-2-one], for which the IC50 is 1280 nM.

On to `COc1ccc([C@H]2CNC(=O)C(C(C)c3ccccc3)C2)cc1OC1CCCC1` (stereo partly drawn) [(5S)-5-(3-(cyclopentyloxy)-4-methoxyphenyl)-3-(1-phenylethyl)piperidin-2-one], for which the IC50 was 1040 nM.

With `CCOc1cc([C@H]2CNC(=O)C(Cc3ccc(F)cc3)(Cc3ccc(F)cc3)C2)ccc1OC` [(S)-5-(3-ethoxy-4-methoxyphenyl)-3,3-bis(4-fluorobenzyl)piperidin-2-one], the IC50 came to 5080 nM.

The values are drawn from patent US20100168170A1, “Piperidinones Useful in the Treatment of Inflammation” (priority 2007, published 2010).
